Measured values from patent publication US5808109A, “Compounds that inhibit complement and/or suppress immune activity” (T Cell Sciences, Inc., priority 1995, dated 1998).
Read-outs that look alike come from different tables or passages of the source.

What was measured:
[1] = Viability of effector cells by trypan blue exclusion; type: cell-based; conditions: human, peripheral blood mononuclear cells
Description: (§1) where EXP (experimental value) was obtained using effector and target cells; SR (the spontaneous release) was obtained from target cells incubated with media alone; TOTAL release was obtained by hypotonic lysis in water; and B represents instrumental background. Means were calculated from quadruplicate wells and the standard deviations never exceeded 10%. Viability of the effector cells incubated with the test compound was determined by trypan blue exclusion.

CD8 protein release = CD8 protein release into supernatant of stimulated PBL cultures (enzyme immunoassay); type: cell-based, human; conditions: stimulated PBL cultures (FIG. 7)
Description: Release of cell surface interleukin-2 receptor (IL-2R) or CD8 antigen from lymphocytes is a correlate of T cell activation (Rubin et al. J. Immunol. 1985, 135, 3172-77; Rubin et al. Fed. proc. 1985 44, 946; Fujimoto, J. et al. J. Exp. Med. 1983, 159, 752-66; Tomkinson, B. et al. 2d Annual Conference on Clinical Immunol. Washington, D.C., Oct. 30, 1987). In some experiments, the level of IL-2R or CD8 protein released into the supernatant of the PBL cultures was assessed by removing aliquots therefrom just prior to pulsing with ^3 H-thymidine. Commercially available enzyme immunoassay kits (CELLFREE™ IL-2R, Cat. No. CK1020, T Cell Sciences, Inc., Cambridge, Mass., or CELL-FREE™ T8/CD8, Cat. No. CK1040, T Cell Sciences) were used to determine the levels of the two analytes.

human complement = test: Inhibition of complement-mediated hemolysis, human serum, sensitized sheep erythrocytes; type: biochemical
Description: The ability to inhibit complement was also tested by assaying for inhibition of complement-mediated red cell lysis (hemolysis). The inhibition of hemolysis was determined as a function of compound concentration. The compounds to be tested were diluted in 0.1M Hepes buffer (0.15N NaCl, pH 7.4), and 50 μl were added to each well of a V-bottom microtiter plate. Human serum, used as the complement source, was diluted 1 to 500 in Hepes buffer, and 50 μl were added to each well. Next, commercially available sheep erythrocytes with anti-sheep antibody (Diamedix Cat. No. 789-001) were used as received and added at 100 μl/well to initiate the complement pathway leading to hemolysis. The plate was incubated for 60 minutes at 37° C. and then centrifuged at 500×g for 10 minutes. The supernatants were removed and placed in a flat-bottom microtiter plate. The extent of hemolysis was measured as a function of the sample absorbance at 410 nm. The maximal absorbance (corresponding to maximal hemolysis), Amax, was obtained from the absorbance value of an erythrocyte sample containing only human serum, AS, less the absorbance of a sample containing only the red cells, A0. Thus, Amax =AS -A0. The difference between the absorbance of an erythrocyte sample containing both human serum and inhibitive compound, and the absorbance of a cell sample containing inhibitive compound only, was defined as Asample. The inhibition, IH, was expressed as the fraction (Amax -Asample)/Amax, and IH50 was defined as the concentration of inhibitive compound required to produce a value of IH=1/2.
The 4 substituted spirobenzofuran compounds of example 7 and the disubstituted spirobenzofuran compounds of example 8 were tested for their capacity to inhibit complement-mediated lysis of sheep red blood cells (SRBC) as described in Section 6.6.2 supra with the modification that the human serum used as the complement source was diluted to 1 to 100 in Hepes buffer, instead of […]. The results of the hemolysis assays are shown in FIG. 8 and Tables XI and XII.

[2] = system: Chinese hamster ovary (CHO) cells; test: CHO cell proliferation, 3H-thymidine incorporation; type: cell-based
Description: Non-confluent CHO cells were allowed to proliferate for 4 hours in a 96-well plate at a volume of 50 μl per well in the absence or presence of compound 11a at a concentration of 1.8 mM. The cells were pulsed with 0.5 μCi of ^3 H-thymidine per sample for 4 hours, harvested, and the amount of incorporated ^3 H-thymidine was determined by scintillation counting. The CHO cells allowed to proliferate in the absence of added compound yielded a value of 57025 (±7530) CPM. The value for the sample grown in the presence of 11a was 52549 (±6272) CPM.

[3] = system: K562 erythromyeloid leukemia cells (NK-sensitive target cells); test: Inhibition of natural killer activity, 51Cr release cytotoxicity assay; type: cell-based; conditions: effector:target 50:1, 4 h
Description: (§2) Compounds were tested for their effects on the ability of peripheral blood mononuclear cells to lyse NK-sensitive target cells, K562. NK activity was determined using ^51 Cr-labeled K562 erythromyeloid leukemia cells as targets, and normal peripheral blood mononuclear cells as effector cells, in a four hour cytotoxicity assay. Effector cells were isolated from fresh blood by Ficoll-Hypaque gradient centrifugation, and 100 μl of a 5×10^5 cell/well suspension were added to each well of a V-bottom microtiter plate. The compound 11a was diluted in RPMI 1640 medium containing 10% fetal calf serum and dispensed at 100 μl per well. Target cells (K562) were labeled for 30 minutes with 100 μCi of ^51 Cr, washed thoroughly and dispensed in a 20 μl volume at 10^4 cells/well. […] The microtiter plate was centrifuged at 50×g for 5 minutes and incubated in a humidified chamber with 5% CO2 at 37° C. After 4 hours, 100 μl were removed from each well and the radioactivity was measured with a LKB 1275 gamma counter. The percent specific lysis was calculated as follows:
(§3) % specific lysis=[(EXP-SR)/(TOTAL-B)]×100
as §1

[4] = as above; type: cell-based; conditions: human, k562 cells, read-out: Spont. Release Target Cells Alone (K562)
Description: as §2, §3, §1

CD8 protein release (CD8 protein release): inhibitor
Structure (SMILES): COc1ccc(C(=O)O)c2c1CC1(CCCCC1)O2 [Compound 11a, 7-carboxy-4-methoxyspiro[benzofuran-2(3H)-cyclohexane]]
viability at 400 µM ([1]; 0.4 mM): 95%
viability at 800 µM ([1]; 0.8 mM): 95%
viability at 1600 µM ([1]; 1.6 mM): 95%
viability at 3200 µM ([1]; 3.2 mM): 76%
viability at 6400 µM ([1]; 6.4 mM): 5%
IC50 (human complement; Table VII, human serum, read-out: IHO50): 1330 µM
IC50 (human complement; Table XI, human serum diluted 1 to 100, read-out: IH50 Mean): 1330 µM
IC50 (human complement; from FIG. 3 plot, read-out: IH50 (the source's name)): ~900 µM
inhibition of CHO cell proliferation [2]: no inhibition
incorporated 3H-thymidine ([2]; 1.8 mM, CHO cells): 52549 (±6272) CPM
% Specific Lysis ([3]; 0.4 mM): 7%
% Specific Lysis ([3]; 0.8 mM): 4%
% Specific Lysis ([3]; 1.6 mM): 1%
% Specific Lysis ([3]; 3.2 mM): -1%
% Specific Lysis ([3]; 6.4 mM): 18%
% spontaneous 51Cr release of K562 target cells alone at 4 h, 400 µM ([4]; 0.4 mM): 5%
% spontaneous 51Cr release of K562 target cells alone at 4 h, 800 µM ([4]; 0.8 mM): 5%
% spontaneous 51Cr release of K562 target cells alone at 4 h, 1600 µM ([4]; 1.6 mM): 5%
% spontaneous 51Cr release of K562 target cells alone at 4 h, 3200 µM ([4]; 3.2 mM): 5%
% spontaneous 51Cr release of K562 target cells alone at 4 h, 6400 µM ([4]; 6.4 mM): 23%
